The source of these data is BindingDB's records for patent US11185537 (Novartis, 2021).

The target of test [1] is Zinc finger protein Helios (Homo sapiens, UniProt Q9UKS7).
The target in test [2] is DNA-binding protein Ikaros (Human, UniProt Q13422).

The structures appear in SMILES notation.

DNA-binding protein Ikaros, sequence (Q13422 whole entry): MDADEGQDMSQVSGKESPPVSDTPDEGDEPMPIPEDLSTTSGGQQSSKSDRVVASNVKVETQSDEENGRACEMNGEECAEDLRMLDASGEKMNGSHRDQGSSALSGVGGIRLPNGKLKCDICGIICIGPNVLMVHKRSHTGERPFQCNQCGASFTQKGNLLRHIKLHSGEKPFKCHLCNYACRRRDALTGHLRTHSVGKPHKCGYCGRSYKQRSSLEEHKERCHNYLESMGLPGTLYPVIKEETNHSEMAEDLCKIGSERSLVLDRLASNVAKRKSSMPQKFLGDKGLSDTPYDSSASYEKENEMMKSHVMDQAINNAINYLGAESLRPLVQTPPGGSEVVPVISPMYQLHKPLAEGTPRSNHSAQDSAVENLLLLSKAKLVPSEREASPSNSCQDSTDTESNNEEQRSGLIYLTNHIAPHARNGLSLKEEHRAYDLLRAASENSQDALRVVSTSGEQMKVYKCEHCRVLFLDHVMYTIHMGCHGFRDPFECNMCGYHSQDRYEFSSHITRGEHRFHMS
Zinc finger protein Helios, sequence (Q9UKS7 whole entry): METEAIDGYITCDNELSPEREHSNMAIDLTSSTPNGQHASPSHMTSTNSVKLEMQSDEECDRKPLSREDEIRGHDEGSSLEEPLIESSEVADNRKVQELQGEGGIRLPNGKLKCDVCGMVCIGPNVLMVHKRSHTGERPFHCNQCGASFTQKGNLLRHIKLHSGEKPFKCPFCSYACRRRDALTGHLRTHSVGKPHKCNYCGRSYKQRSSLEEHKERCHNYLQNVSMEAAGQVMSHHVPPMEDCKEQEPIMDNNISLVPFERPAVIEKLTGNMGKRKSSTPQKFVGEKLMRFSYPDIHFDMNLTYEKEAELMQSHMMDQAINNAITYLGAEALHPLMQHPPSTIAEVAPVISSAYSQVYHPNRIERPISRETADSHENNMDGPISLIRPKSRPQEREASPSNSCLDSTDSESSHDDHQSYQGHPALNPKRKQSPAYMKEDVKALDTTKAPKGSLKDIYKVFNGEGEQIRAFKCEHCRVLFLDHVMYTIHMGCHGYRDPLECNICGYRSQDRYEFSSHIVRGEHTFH

For the compound `CN[C@H]1CC=CC[C@@H]1N(C)c1ccc2c(c1)CN(C1CCC(=O)NC1=O)C2=O` (some centres not stated) [US11185537, Compound Mix], the concentration giving a half-maximal response (EC50) in test [1] was 230 nM; in test [2] it was 120 nM.

The term EC50 denotes the concentration that produces a half-maximal response. A lower EC50 goes with a more potent agent.
